In patent publication US20080207705A1, “Heteroaryl-Imidazole Derivatives as Cannabinoid CB1 Receptor Antagonists” (Green Cross Corporation, priority 2007, published 2008) one finds IC50 data, which are given here for 31 compounds.

For orientation: IC50 means the concentration at which inhibition is half-maximal.

T1 sequence (P20272 whole entry): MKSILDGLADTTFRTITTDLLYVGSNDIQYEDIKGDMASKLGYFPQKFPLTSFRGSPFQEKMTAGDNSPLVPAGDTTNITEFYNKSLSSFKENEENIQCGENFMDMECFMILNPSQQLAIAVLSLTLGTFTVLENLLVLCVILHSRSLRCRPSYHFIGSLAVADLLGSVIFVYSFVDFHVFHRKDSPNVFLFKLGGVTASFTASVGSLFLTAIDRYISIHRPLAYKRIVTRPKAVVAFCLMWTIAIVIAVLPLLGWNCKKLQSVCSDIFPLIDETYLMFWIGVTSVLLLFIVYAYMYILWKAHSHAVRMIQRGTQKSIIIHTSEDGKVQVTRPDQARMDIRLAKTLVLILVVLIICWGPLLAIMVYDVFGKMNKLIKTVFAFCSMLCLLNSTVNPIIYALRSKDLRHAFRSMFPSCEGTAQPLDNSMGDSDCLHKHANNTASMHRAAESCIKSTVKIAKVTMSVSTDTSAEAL

The first test concerns the target T1, rat CB-1 receptor (Rattus norvegicus, UniProt P20272).
T1 construct: The tissue obtained from the brain of SD rats was homogenized; from tissue; host or cells: brain of SD rats (membrane pellet of homogenate)
The experiment in a line: rat CB-1 receptor binding protocol with [3H]CP-55940.
Conditions: not given
In turn, `FC(F)(F)C1(c2nnc(-c3nc(-c4ccc(Cl)cc4Cl)n(-c4ccc(Br)cc4)c3Cn3cncn3)o2)CCC1` [Example 76, 2-(5-((1H-1,2,4-Triazol-1-yl)methyl)-1-(4-bromophenyl)-2-(2,4-dichlorophenyl)-1H-imidazol-4-yl)-5-(1-(trifluoromethyl)cyclobutyl)-1,3,4-oxadiazole] displayed an IC50 of 3.95 nM.

`Cc1c(-c2nnc(C3CCCCC3)o2)nc(-c2ccc(Cl)cc2Cl)n1-c1ccc(Br)cc1` [Example 19, 2-(1-(4-Bromophenyl)-2-(2,4-dichlorophenyl)-5-methyl-1H-imidazol-4-yl)-5-cyclohexyl-1,3,4-oxadiazole] displayed an IC50 of 70 nM.

In turn, `Cc1c(-c2nnc(C(C)c3ccccc3)o2)nc(-c2ccc(Cl)cc2Cl)n1-c1ccc(Cl)cc1` (stereo not shown) [Example 11, 2-(1-(4-Chlorophenyl)-2-(2,4-dichlorophenyl)-5-methyl-1H-imidazol-4-yl)-5-(1-phenylethyl)-1,3,4-oxadiazole] displayed a half-inhibitory concentration (IC50) of 31.4 nM.

Still in this test, the particulars now being: [3H]CP-55940, brain tissue of SD rats, 30 °C for 60 min; read-out: IC50.
On to `CCc1c(-c2nnc(C3(c4ccc(Cl)cc4)CCC3)s2)nc(-c2ccc(Cl)cc2Cl)n1-c1ccc(Br)cc1` [Example 131, 2-(1-(4-Bromophenyl)-2-(2,4-dichlorophenyl)-5-ethyl-1H-imidazol-4-yl)-5-(1-(4-chlorophenyl)cyclobutyl)-1,3,4-thiadiazole], for which the IC50 stood at 4.79 nM.

For `CCC(C)c1nnc(-c2nc(-c3ccc(Cl)cc3Cl)n(-c3ccc(Cl)cc3)c2C)o1` (stereo not shown) [Example 8, 2-sec-Butyl-5-(1-(4-chlorophenyl)-2-(2,4-dichlorophenyl)-5-methyl-1H-imidazol-4-yl)-1,3,4-oxadiazole], the IC50 is 39.4 nM.

As to `Cc1c(-c2nnc(C3(c4ccc(Cl)cc4)CC3)s2)nc(-c2ccccc2Cl)n1-c1ccc(Br)cc1` [Example 144, 2-(1-(4-Bromophenyl)-2-(2-chlorophenyl)-5-methyl-1H-imidazol-4-yl)-5-(1-(4-chlorophenyl)cyclopropyl)-1,3,4-thiadiazole], the IC50 was determined as 2.18 nM.

In the case of `CCc1cnc(-c2nc(-c3ccc(Cl)cc3Cl)n(-c3ccc(Cl)cc3)c2C)o1` [Example 181, 2-(1-(4-Chlorophenyl)-2-(2,4-dichlorophenyl)-5-methyl-1H-imidazol-4-yl)-5-ethyloxazole], the half-maximal inhibitory concentration (IC50) amounted to 84 nM.

Consider `Cc1c(-c2nnc(C(C)(C)C)s2)nc(-c2ccc(Cl)cc2Cl)n1-c1ccc(Br)cc1` [Example 109, 2-(1-(4-Bromophenyl)-2-(2,4-dichlorophenyl)-5-methyl-1H-imidazol-4-yl)-5-tert-butyl-1,3,4-thiadiazole], for which the IC50 came out at 3.45 nM.

On to `FC(F)(F)C1(c2nnc(-c3nc(-c4ccc(Cl)cc4Cl)n(-c4ccc(Br)cc4)c3Cn3cncn3)o2)CC1` [Example 75, 2-(5-((1H-1,2,4-Triazol-1-yl)methyl)-1-(4-bromophenyl)-2-(2,4-dichlorophenyl)-1H-imidazol-4-yl)-5-(1-(trifluoromethyl)cyclopropyl)-1,3,4-oxadiazole], for which the IC50 worked out at 8.77 nM.

Regarding `CCc1c(-c2nnc(C(C)(C)C)o2)nc(-c2ccc(Cl)cc2Cl)n1-c1ccc(Br)cc1` [Example 21, 2-(1-(4-Bromophenyl)-2-(2,4-dichlorophenyl)-5-ethyl-1H-imidazol-4-yl)-5-tert-butyl-1,3,4-oxadiazole], the IC50 was found to be 3.15 nM.

Regarding `CCC(C)c1nnc(-c2nc(-c3ccc(Cl)cc3Cl)n(-c3ccc(Cl)cc3)c2C)s1` (stereo not shown) [Example 97, 2-sec-Butyl-5-(1-(4-chlorophenyl)-2-(2,4-dichlorophenyl)-5-methyl-1H-imidazol-4-yl)-1,3,4-thiadiazole], the IC50 worked out at 28.1 nM.

As to `CCc1c(-c2ncc(C(C)(C)C)s2)nc(-c2ccc(Cl)cc2Cl)n1-c1ccc(Br)cc1` [Example 201, 2-(1-(4-Bromophenyl)-2-(2,4-dichlorophenyl)-5-ethyl-1H-imidazol-4-yl)-5-tert-butylthiazole], the IC50 was 10.5 nM.

In the case of `Cc1c(-c2nnc(C3CCCC3)s2)nc(-c2ccc(Cl)cc2Cl)n1-c1ccc(Cl)cc1` [Example 92, 2-(1-(4-Chlorophenyl)-2-(2,4-dichlorophenyl)-5-methyl-1H-imidazol-4-yl)-5-cyclopentyl-1,3,4-thiadiazole], the IC50 came to 10.8 nM.

For `CCc1c(-c2nnc(C3CCC3)o2)nc(-c2ccc(Cl)cc2Cl)n1-c1ccc(Cl)cc1` [Example 14, 2-(1-(4-Chlorophenyl)-2-(2,4-dichlorophenyl)-5-ethyl-1H-imidazol-4-yl)-5-cyclobutyl-1,3,4-oxadiazole], the IC50 came to 34.1 nM.

As for `CC(C)(C)c1nnc(-c2nc(-c3ccc(Cl)cc3Cl)n(-c3ccc(Br)cc3)c2Cn2cncn2)s1` [Example 164, 2-(5-((1H-1,2,4-Triazol-1-yl)methyl)-1-(4-bromophenyl)-2-(2,4-dichlorophenyl)-1H-imidazol-4-yl)-5-tert-butyl-1,3,4-thiadiazole], the half-inhibitory concentration (IC50) was found to be 20.9 nM.

Turning to `Cc1c(-c2nnc(C3CCCCCC3)s2)nc(-c2ccc(Cl)cc2Cl)n1-c1ccc(Cl)cc1` [Example 94, 2-(1-(4-Chlorophenyl)-2-(2,4-dichlorophenyl)-5-methyl-1H-imidazol-4-yl)-5-cycloheptyl-1,3,4-thiadiazole], the IC50 amounted to 21.6 nM.

In the case of `CCc1c(-c2nnc(C(C)(C)C)s2)nc(-c2ccc(Cl)cc2Cl)n1-c1ccc(Br)cc1` [Example 110, 2-(1-(4-Bromophenyl)-2-(2,4-dichlorophenyl)-5-ethyl-1H-imidazol-4-yl)-5-tert-butyl-1,3,4-thiadiazole], the IC50 was 1.91 nM.

As to `Cc1c(-c2nnc(C3CCCCC3)s2)nc(-c2ccc(Cl)cc2Cl)n1-c1ccc(Cl)cc1` [Example 91, 2-(1-(4-Chlorophenyl)-2-(2,4-dichlorophenyl)-5-methyl-1H-imidazol-4-yl)-5-cyclohexyl-1,3,4-thiadiazole], the 50% inhibitory concentration (IC50) was found to be 46 nM.

For `Cc1c(-c2ncc(C(C)C)o2)nc(-c2ccc(Cl)cc2Cl)n1-c1ccc(Cl)cc1` [Example 183, 2-(1-(4-Chlorophenyl)-2-(2,4-dichlorophenyl)-5-methyl-1H-imidazol-4-yl)-5-isopropyloxazole], the concentration for half-maximal inhibition (IC50) worked out at 26.4 nM.

As to `FC(F)(F)C1(c2nnc(-c3nc(-c4ccccc4Cl)n(-c4ccc(Br)cc4)c3Cn3cncn3)s2)CC1` [Example 169, 2-(5-((1H-1,2,4-Triazol-1-yl)methyl)-1-(4-bromophenyl)-2-(2-chlorophenyl)-1H-imidazol-4-yl)-5-(1-(trifluoromethyl)cyclopropyl)-1,3,4-thiadiazole], the IC50 turned out to be 4.73 nM.

In the case of `Cc1c(-c2nnc(C3(C(F)(F)F)CC3)s2)nc(-c2ccccc2Cl)n1-c1ccc(Br)cc1` [Example 142, 2-(1-(4-Bromophenyl)-2-(2-chlorophenyl)-5-methyl-1H-imidazol-4-yl)-5-(1-(trifluoromethyl)cyclopropyl)-1,3,4-thiadiazole], the IC50 is 12.3 nM.

Turning to `CCc1c(-c2nnc(C3(C(F)(F)F)CCC3)s2)nc(-c2ccc(Cl)cc2Cl)n1-c1ccc(Br)cc1` [Example 140, 2-(1-(4-Bromophenyl)-2-(2,4-dichlorophenyl)-5-ethyl-1H-imidazol-4-yl)-5-(1-(trifluoromethyl)cyclobutyl)-1,3,4-thiadiazole], the IC50 is 6.74 nM.

Regarding `CC(C)(C)c1nnc(-c2nc(-c3ccccc3Cl)n(-c3ccc(Br)cc3)c2Cn2cncn2)o1` [Example 78, 2-(5-((1H-1,2,4-Triazol-1-yl)methyl)-1-(4-bromophenyl)-2-(2-chlorophenyl)-1H-imidazol-4-yl)-5-tert-butyl-1,3,4-oxadiazole], the IC50 amounted to 10.3 nM.

For `CC(C)c1c(-c2nnc(C3(c4ccccc4)CC3)o2)nc(-c2ccc(Cl)cc2Cl)n1-c1ccc(Cl)cc1` [Example 28, 2-(1-(4-Chlorophenyl)-2-(2,4-dichlorophenyl)-5-isopropyl-1H-imidazol-4-yl)-5-(1-phenylcyclopropyl)-1,3,4-oxadiazole], the IC50 was 15.5 nM.

For the compound `CCc1c(-c2nnc(C(C)(C)C)s2)nc(-c2ccc(Cl)cc2Cl)n1-c1ccc(Cl)cc1` [Example 104, 2-tert-Butyl-5-(1-(4-chlorophenyl)-2-(2,4-dichlorophenyl)-5-ethyl-1H-imidazol-4-yl)-1,3,4-thiadiazole], the IC50 worked out at 15.8 nM.

For the compound `CCCc1c(-c2nnc(C3CCC3)o2)nc(-c2ccc(Cl)cc2Cl)n1-c1ccc(Cl)cc1` [Example 36, 2-(1-(4-Chlorophenyl)-2-(2,4-dichlorophenyl)-5-propyl-1H-imidazol-4-yl)-5-cyclobutyl-1,3,4-oxadiazole], the IC50 is 60.1 nM.

Regarding `Cc1c(-c2nnc(C3(C(F)(F)F)CCC3)o2)nc(-c2ccc(Cl)cc2Cl)n1-c1ccc(Br)cc1` [Example 47, 2-(1-(4-Bromophenyl)-2-(2,4-dichlorophenyl)-5-methyl-1H-imidazol-4-yl)-5-(1-(trifluoromethyl)cyclobutyl)-1,3,4-oxadiazole], the IC50 was found to be 27.6 nM.

Consider `CCCc1c(-c2nnc(C3CCC3)o2)nc(-c2ccc(Cl)cc2Cl)n1-c1ccc(Br)cc1` [Example 32, 2-(1-(4-Bromophenyl)-2-(2,4-dichlorophenyl)-5-propyl-1H-imidazol-4-yl)-5-cyclobutyl-1,3,4-oxadiazole], for which the 50% inhibitory concentration (IC50) was found to be 68.9 nM.

On to `Cc1c(-c2nnc(C(C)(C)C)s2)nc(-c2ccccc2Cl)n1-c1ccc(Br)cc1` [Example 141, 2-(1-(4-Bromophenyl)-2-(2-chlorophenyl)-5-methyl-1H-imidazol-4-yl)-5-tert-butyl-1,3,4-thiadiazole], for which the IC50 turned out to be 10.7 nM.

Take `CCc1c(-c2nnc(C3(C(F)(F)F)CC3)s2)nc(-c2ccccc2Cl)n1-c1ccc(Br)cc1` [Example 146, 2-(1-(4-Bromophenyl)-2-(2-chlorophenyl)-5-ethyl-1H-imidazol-4-yl)-5-(1-(trifluoromethyl)cyclopropyl)-1,3,4-thiadiazole]: the IC50 came out at 11.5 nM.

On to `CCCC(C)c1nnc(-c2nc(-c3ccc(Cl)cc3Cl)n(-c3ccc(Cl)cc3)c2CC)o1` (stereo not shown) [Example 17, 2-(1-(4-Chlorophenyl)-2-(2,4-dichlorophenyl)-5-ethyl-1H-imidazol-4-yl)-5-(pentan-2-yl)-1,3,4-oxadiazole], for which the IC50 was found to be 11.5 nM.
